This note sets out measurements from PMC12030627, “Radioiodinated Bicyclic RGD Peptide Derivatives for Enhanced Tumor Accumulation” (Pharmaceuticals, 2025).

Data set [1] has as its target T1, His-tagged integrin α5β1 (Homo sapiens, UniProt P05556+P08648).
T1 construct: purchased Sino Biological CT014-H2508H
Put plainly: In vitro selectivity assay, His-tag Dynabeads pulldown, integrin α5β1. The note with it: cyclo-(RGDfK) 25 μM blocking; 2 h incubation at 37 °C. The class given is binding. As to the method:
(§1) Binding assays were conducted following our previously reported method, using the Dynabeads™ His-Tag Isolation and Pulldown protocol (Thermo Fisher Scientific, Tokyo, Japan). Briefly, [^125I]bcRGDpal or [^125I]bcRGDiba (10 kBq/sample) was incubated at 37 °C for 2 h in 200 μL of incubation buffer (3.25 mM sodium phosphate, 70 mM NaCl, 0.01% Tween 20, pH 7.4) with 10 pmol of His-tagged integrin αVβ3, αVβ5, or α5β1 proteins (αVβ3: IT3-H52E3, ACRO Biosystems, Newark, DE, USA; αVβ5: 2528-AV, R&D Systems, Minneapolis, MN, USA; α5β1: CT014-H2508H, Sino Biological, Beijing, China). For the inhibition group, cyclo(RGDfK) (25 μM, S7834, Selleck, Houston, TX, USA) was preincubated with the integrin protein for 30 min at 37 °C. Next, A 2× binding buffer (100 mM sodium phosphate, 600 mM NaCl, 0.01% Tween 20, pH 8.0) was mixed with the solution at a 1:1 volume ratio and incubated with 5 μL of magnetic beads at 37 °C for 10 min to enable protein immobilization. Following immobilization, the beads were rinsed three times with the binding buffer, and radioactivity was measured using a NaI well-type scintillation counter (2480 Wizard2; PerkinElmer Japan, Yokohama, Japan). Protein binding was expressed as %dose/nmol protein.

The subject of data set [2] is U-87 MG-bearing mice. Briefly: Biodistribution in U-87 MG tumor-bearing mice. The settings on record: U-87 MG-bearing mice, mean ± SD, n = 3. The class given is in vivo, BALB/c nu-nu mice. The essentials: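 Male BALB/c nu/nu mice bearing subcutaneous U-87 MG (right leg), or also A549 (left leg), tumors ~10 mm; 37 kBq radiotracer given IV in PBS-0.1% Tween 80. Single-tumor mice sampled 5 min–24 h, co-implanted mice at 2 h (or 30 min–4 h for dimer); organ radioactivity counted by NaI scintillation, expressed as %ID/g.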

Data set [3] concerns the target T2, His-tagged integrin αVβ5 (Homo sapiens, UniProt P06756+P18084).
T2 construct: purchased R&D Systems 2528-AV
Put plainly: In vitro selectivity assay, His-tag Dynabeads pulldown, integrin αVβ5. The class given is binding. The note with it: cyclo-(RGDfK) 25 μM blocking; 2 h incubation at 37 °C. The method, then:
as §1

Data set [4] addresses T3, His-tagged integrin αVβ3 (Homo sapiens, UniProt P05106+P06756).
T3 construct: purchased ACRO Biosystems IT3-H52E3
Briefly: In vitro selectivity assay, His-tag Dynabeads pulldown, integrin αVβ3. The class given is binding. The note with it: for Radioactivity accumulation in αVβ3 protein: 10 kBq probe, 10 pmol His-tagged integrin, 37 °C 2 h, pH 7.4 buffer, without cyclo-(RGDfK); for Radioactivity accumulation in αVβ3 protein with cyclo-(RGDfK) blocking versus free: cyclo-(RGDfK) 25 μM preincubated 30 min at 37 °C, 2 h incubation, unpaired t-test p < 0.001. The method, then: as §1

The mark [5] stands for this setting: 5 min after i.v. administration.
Setting [6] is: 30 min after i.v. administration.

Each structure is given as a SMILES string. Starred links: 1 amine or outer side, 2 acyl side, 3 side chain; linkers in the order of their positions; H or OH if unused. Positions of bridges follow the written chain, without caps; N, C: chain ends. Non-standard residues stand in square brackets, D forms with d. Residues, ends and D or L forms follow the SMILES beside them. *: point of attachment. Butanoyl(4-(4-I-phenyl)) = O=C(CCCc1ccc(I)cc1)*; TBMB = c1c(C[*:1])cc(C[*:3])cc1C[*:2]; Palmitoyl = CCCCCCCCCCCCCCCC(=O)*; Benzoyl(3-I) = O=C(c1cccc(I)c1)*; 4Abz = Nc1ccc(C(=O)O)cc1

T3 sequence (P06756 31-992 limits assumed): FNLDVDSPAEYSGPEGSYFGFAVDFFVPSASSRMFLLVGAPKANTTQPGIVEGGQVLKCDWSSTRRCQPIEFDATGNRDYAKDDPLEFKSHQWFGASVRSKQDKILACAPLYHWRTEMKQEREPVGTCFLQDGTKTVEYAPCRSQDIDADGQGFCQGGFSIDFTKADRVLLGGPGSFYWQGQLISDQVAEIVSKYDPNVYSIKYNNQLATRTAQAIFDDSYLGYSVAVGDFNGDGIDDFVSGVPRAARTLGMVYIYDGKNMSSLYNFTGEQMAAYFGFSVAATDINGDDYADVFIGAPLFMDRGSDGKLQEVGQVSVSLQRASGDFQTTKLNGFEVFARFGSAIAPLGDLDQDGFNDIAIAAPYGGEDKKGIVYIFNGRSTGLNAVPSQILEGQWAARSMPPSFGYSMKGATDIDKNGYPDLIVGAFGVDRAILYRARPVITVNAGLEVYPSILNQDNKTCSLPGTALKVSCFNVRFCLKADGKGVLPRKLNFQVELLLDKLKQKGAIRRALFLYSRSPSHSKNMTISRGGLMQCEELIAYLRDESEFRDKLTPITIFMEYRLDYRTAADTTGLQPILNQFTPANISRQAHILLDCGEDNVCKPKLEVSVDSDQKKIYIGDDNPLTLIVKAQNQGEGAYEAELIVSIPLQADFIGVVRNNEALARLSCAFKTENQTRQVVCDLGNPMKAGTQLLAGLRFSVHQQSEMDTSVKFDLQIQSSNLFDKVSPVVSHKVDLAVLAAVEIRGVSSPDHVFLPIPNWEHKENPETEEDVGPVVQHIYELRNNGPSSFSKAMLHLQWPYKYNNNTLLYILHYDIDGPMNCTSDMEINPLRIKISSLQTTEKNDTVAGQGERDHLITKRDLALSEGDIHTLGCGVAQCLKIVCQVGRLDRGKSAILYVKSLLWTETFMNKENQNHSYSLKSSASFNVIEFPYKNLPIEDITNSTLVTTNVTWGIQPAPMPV
T3 sequence (P05106 27-718 limits assumed): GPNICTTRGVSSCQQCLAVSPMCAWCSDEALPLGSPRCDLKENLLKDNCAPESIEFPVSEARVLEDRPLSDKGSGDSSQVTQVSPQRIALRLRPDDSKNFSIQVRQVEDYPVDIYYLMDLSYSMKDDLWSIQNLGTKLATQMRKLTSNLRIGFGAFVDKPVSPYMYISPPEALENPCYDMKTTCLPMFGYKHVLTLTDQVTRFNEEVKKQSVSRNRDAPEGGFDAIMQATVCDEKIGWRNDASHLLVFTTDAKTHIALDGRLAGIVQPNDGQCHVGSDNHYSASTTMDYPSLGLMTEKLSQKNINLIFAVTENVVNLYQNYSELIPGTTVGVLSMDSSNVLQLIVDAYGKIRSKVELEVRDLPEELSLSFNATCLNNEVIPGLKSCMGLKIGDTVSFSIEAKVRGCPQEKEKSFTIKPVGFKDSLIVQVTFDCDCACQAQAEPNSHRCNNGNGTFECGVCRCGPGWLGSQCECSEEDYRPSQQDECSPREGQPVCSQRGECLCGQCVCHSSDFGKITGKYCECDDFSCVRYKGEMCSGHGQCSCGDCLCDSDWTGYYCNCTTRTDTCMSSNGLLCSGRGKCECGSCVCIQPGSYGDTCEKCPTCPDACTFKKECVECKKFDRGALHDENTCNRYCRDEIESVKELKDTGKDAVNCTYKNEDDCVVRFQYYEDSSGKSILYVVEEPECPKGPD
T1 sequence (P08648 42-995 limits assumed): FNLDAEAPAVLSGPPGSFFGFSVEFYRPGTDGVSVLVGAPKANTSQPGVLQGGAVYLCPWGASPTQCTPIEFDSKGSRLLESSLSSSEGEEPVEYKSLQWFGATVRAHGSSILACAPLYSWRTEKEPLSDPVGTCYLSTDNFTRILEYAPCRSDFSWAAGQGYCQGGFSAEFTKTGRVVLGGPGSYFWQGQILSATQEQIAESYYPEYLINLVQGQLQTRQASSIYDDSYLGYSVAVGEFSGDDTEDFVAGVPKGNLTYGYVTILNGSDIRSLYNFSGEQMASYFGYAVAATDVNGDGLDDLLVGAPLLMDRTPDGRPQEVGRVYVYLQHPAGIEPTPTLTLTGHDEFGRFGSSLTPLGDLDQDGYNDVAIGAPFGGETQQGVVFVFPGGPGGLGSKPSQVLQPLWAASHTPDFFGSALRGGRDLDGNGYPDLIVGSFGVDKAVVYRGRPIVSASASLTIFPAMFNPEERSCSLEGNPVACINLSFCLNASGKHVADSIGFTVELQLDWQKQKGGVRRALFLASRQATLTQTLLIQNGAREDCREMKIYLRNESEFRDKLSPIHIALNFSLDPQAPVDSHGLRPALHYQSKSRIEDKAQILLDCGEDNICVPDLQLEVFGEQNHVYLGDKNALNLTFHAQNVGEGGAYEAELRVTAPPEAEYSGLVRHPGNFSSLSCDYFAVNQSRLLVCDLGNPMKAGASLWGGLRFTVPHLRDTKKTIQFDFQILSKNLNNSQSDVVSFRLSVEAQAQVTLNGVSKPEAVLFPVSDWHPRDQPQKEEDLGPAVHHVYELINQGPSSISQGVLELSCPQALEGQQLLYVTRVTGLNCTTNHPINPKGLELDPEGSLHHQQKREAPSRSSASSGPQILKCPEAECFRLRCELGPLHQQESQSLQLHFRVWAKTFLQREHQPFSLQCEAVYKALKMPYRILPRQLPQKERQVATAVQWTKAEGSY
T1 sequence (P05556 21-728 limits assumed): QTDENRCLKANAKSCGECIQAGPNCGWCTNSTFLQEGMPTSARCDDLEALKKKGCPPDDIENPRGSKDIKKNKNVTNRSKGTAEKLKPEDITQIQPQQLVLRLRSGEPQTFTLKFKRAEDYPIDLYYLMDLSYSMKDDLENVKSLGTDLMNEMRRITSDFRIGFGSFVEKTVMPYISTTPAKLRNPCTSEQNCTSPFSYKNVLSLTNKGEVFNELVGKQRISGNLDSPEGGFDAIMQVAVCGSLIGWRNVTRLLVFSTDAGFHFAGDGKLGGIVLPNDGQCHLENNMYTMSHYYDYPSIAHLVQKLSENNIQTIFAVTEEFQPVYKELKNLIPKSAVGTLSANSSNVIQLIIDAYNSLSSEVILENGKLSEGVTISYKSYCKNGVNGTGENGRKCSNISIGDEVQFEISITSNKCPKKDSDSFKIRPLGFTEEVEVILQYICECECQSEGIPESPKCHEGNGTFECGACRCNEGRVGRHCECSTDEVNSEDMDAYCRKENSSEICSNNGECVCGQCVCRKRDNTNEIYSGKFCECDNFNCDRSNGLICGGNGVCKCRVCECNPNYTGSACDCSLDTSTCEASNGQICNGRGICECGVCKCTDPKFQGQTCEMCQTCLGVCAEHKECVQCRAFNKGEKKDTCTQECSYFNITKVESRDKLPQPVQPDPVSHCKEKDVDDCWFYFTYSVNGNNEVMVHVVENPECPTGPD
T2 sequence (P06756 31-992 limits assumed): as the sequence (P06756 31-992 limits assumed) above
T2 sequence (P18084 24-719 limits assumed): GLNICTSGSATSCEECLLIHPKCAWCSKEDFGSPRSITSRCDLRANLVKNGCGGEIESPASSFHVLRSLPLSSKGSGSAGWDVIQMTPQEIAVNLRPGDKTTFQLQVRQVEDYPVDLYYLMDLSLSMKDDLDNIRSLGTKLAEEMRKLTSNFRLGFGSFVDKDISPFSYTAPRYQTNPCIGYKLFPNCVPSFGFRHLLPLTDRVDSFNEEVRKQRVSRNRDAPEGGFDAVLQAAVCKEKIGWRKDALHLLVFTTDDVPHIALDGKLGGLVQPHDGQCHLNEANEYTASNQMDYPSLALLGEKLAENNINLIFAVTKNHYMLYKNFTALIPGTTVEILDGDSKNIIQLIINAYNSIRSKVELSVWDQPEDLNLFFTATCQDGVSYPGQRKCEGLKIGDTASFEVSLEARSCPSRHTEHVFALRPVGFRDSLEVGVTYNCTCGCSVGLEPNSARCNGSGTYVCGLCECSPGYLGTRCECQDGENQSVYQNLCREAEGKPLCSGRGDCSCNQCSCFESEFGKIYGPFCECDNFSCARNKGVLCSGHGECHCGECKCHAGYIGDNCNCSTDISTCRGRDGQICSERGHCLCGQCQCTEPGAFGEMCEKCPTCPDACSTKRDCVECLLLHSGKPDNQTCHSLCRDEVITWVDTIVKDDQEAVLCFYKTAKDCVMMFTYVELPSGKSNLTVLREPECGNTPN

In the case of `N=C(N)NCCC[C@@H]1NC(=O)[C@H]2CSCc3cc(cc(c3)CSC[C@H](C(N)=O)NC(=O)[C@H](CC(=O)O)NC(=O)CNC1=O)CSC[C@H](NC(=O)CNC(=O)[C@H](CO)NC(=O)c1ccc(NC(=O)CNC(=O)[C@H](CO)NC(=O)[C@@H]3CCCN3C(=O)[C@@H]3CCCN3C(=O)[C@@H]3CCCN3C(=O)[C@H](CCCCNC(=O)c3cccc(I)c3)NC(=O)CCCc3ccc(I)cc3)cc1)C(=O)N[C@@H](Cc1c[nH]cn1)C(=O)N1CCC[C@H]1C(=O)N[C@@H](CCC(N)=O)C(=O)N2` [[^125I]bcRGDiba] ({Butanoyl(4-(4-I-phenyl))}-K(Benzoyl(3-I))PPPSG[4Abz]SGCHPQ[dC]RGD[dC]-NH2; linker 10-14-18 via TBMB), the “Radioactivity accumulation in α5β1 protein, treatment versus inhibitor group” value in data set [1] is “No differences”. The U87/Blood radioactivity ratio in data set [2] (setting [5]) turned out to be 0.1 ± 0.0; in data set [2] (setting [6]) it was 0.2 ± 0.0; in data set [2] (1 h after i.v. administration), 0.2 ± 0.0; in data set [2] (2 h after i.v. administration) it was 0.3 ± 0.0; in data set [2] (6 h after i.v. administration) it was 0.3 ± 0.0; in data set [2] (12 h after i.v. administration) it was 0.4 ± 0.1. The U87/Blood radioactivity ratio in data set [2] (24 h after i.v. administration) was 0.4 ± 0.1. Moreover, the U87/Muscle radioactivity ratio in data set [2] (setting [5]) was determined as 1.6 ± 0.3; in data set [2] (setting [6]), 2.3 ± 0.6; in data set [2] (1 h after i.v. administration) it was 2.3 ± 0.4; in data set [2] (2 h after i.v. administration), 2.4 ± 0.3; in data set [2] (6 h after i.v. administration), 2.5 ± 0.3; in data set [2] (12 h after i.v. administration), 2.6 ± 0.3. Moreover, the U87/Muscle radioactivity ratio in data set [2] (24 h after i.v. administration) is reported as 2.1 ± 0.4. Also, the Radioactivity in thyroid in data set [2] (12 h after i.v. administration) and in data set [2] (24 h after i.v. administration) was 0.0 ± 0.0 % injected dose each time. The “Radioactivity in U-87 MG tumor” value in data set [2] (24 h after i.v. administration) was determined as 0.5 % ID/g. Moreover, the Radioactivity in brain in data set [2] (24 h after i.v. administration) is 0.0 ± 0.0 % injected dose per gram of tissue. Moreover, the “Radioactivity accumulation in αVβ5 protein, treatment versus inhibitor group” value in data set [3] is on record as “No differences”. In addition, in data set [4], the “Radioactivity accumulation in αVβ3 protein” value is given as “high radioactivity accumulation”. The “Radioactivity accumulation in αVβ3 protein with cyclo-(RGDfK) blocking versus free” value in data set [4] was “significantly inhibited”.

Turning to `CCCCCCCCCCCCCCCC(=O)N[C@@H](CCCCNC(=O)c1cccc(I)c1)C(=O)N1CCC[C@H]1C(=O)N1CCC[C@H]1C(=O)N1CCC[C@H]1C(=O)N[C@@H](CO)C(=O)NCC(=O)Nc1ccc(C(=O)N[C@@H](CO)C(=O)NCC(=O)N[C@H]2CSCc3cc4cc(c3)CSC[C@@H](NC(=O)[C@H](CCC(N)=O)NC(=O)[C@@H]3CCCN3C(=O)[C@H](Cc3c[nH]cn3)NC2=O)C(=O)N[C@@H](CCCNC(=N)N)C(=O)NCC(=O)N[C@@H](CC(=O)O)C(=O)N[C@@H](C(N)=O)CSC4)cc1` [[^125I]bcRGDpal] (Palmitoyl-K(Benzoyl(3-I))PPPSG[4Abz]SGCHPQ[dC]RGD[dC]-NH2; linker 10-14-18 via TBMB), the “Radioactivity accumulation in α5β1 protein, treatment versus inhibitor group” value in data set [1] is given as “No differences”. In addition, the U87/Blood radioactivity ratio in data set [2] (setting [5]) was 0.1 ± 0.0; in data set [2] (setting [6]) it was 0.3 ± 0.0; in data set [2] (1 h after i.v. administration), 0.4 ± 0.1; in data set [2] (2 h after i.v. administration) it was 0.5 ± 0.0; in data set [2] (6 h after i.v. administration) it was 0.5 ± 0.1; in data set [2] (12 h after i.v. administration) it was 0.4 ± 0.0. The U87/Blood radioactivity ratio in data set [2] (24 h after i.v. administration) turned out to be 0.5 ± 0.1. Moreover, the U87/Muscle radioactivity ratio in data set [2] (setting [6]) stood at 2.1 ± 0.3; in data set [2] (1 h after i.v. administration), 2.9 ± 0.2; in data set [2] (2 h after i.v. administration), 3.7 ± 0.4; in data set [2] (6 h after i.v. administration) it was 3.3 ± 0.8; in data set [2] (12 h after i.v. administration) it was 3.4 ± 0.5; in data set [2] (24 h after i.v. administration), 2.4 ± 0.4. Moreover, the Radioactivity in thyroid in data set [2] (12 h after i.v. administration) and in data set [2] (24 h after i.v. administration) was 0.0 ± 0.0 % injected dose each time. The “Radioactivity in U-87 MG tumor” value in data set [2] (24 h after i.v. administration) is on record as 0.3 % ID/g. In data set [2] (24 h after i.v. administration), the Radioactivity in brain is recorded as 0.0 ± 0.0 % injected dose per gram of tissue. Further, in data set [3], the “Radioactivity accumulation in αVβ5 protein, treatment versus inhibitor group” value is “No differences”. In addition, the “Radioactivity accumulation in αVβ3 protein” value in data set [4] is “high radioactivity accumulation”. Besides, in data set [4], the “Radioactivity accumulation in αVβ3 protein with cyclo-(RGDfK) blocking versus free” value is on record as “significantly inhibited”.
